Usually Ki stands for a measure of affinity in units of concentration, obtained from inhibition or displacement. A higher Ki goes with weaker binding.

T1 sequence (Q8G2P8 whole entry, looked up): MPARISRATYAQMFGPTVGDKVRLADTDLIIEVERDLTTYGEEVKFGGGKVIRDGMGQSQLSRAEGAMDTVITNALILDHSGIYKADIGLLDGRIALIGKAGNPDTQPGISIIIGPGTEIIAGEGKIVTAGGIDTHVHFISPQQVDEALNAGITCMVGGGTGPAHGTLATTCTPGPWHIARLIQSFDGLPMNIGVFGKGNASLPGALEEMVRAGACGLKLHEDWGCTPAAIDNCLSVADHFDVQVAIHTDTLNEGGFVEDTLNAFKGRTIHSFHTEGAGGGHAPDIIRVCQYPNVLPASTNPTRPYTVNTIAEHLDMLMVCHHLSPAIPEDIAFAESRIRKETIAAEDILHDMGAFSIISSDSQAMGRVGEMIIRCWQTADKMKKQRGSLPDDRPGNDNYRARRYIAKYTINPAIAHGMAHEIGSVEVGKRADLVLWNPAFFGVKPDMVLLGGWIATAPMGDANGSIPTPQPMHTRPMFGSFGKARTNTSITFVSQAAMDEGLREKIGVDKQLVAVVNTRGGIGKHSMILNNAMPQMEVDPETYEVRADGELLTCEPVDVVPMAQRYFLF

This assay addresses T1, Brucella suis urease (ure-1 operon) (Brucella suis, UniProt Q8G2P8).
T1 construct: gene ureC1
The experiment in a line: biochemical.
For the molecule `NC(=O)NO` [hydroxyurea], the Ki turned out to be 1040 ± 310 µM.
Molecule `NC(N)=S` [thiourea] showed a Ki of 26100 ± 2300 µM.
The result for `CC(=O)NO` [acetohydroxamic acid] reads 770 ± 60 µM.

The values above are taken from publication PMC2492869 (BMC Microbiology, 2008).
